For the test, the system named is DIO mice (C57BL/6NTac, high fat diet). The test can be described thus: body weight study in diet-induced obese (DIO) mice, 56 days. The note with it: DA 92.4 mg/kg, CQL 50 mg/kg, gavage BID. Type of test: in vivo, mouse. Here is the method: This example provides results of a study of DA plus another compound (CQL) on body weight in diet-induced (DIO) mice. Adult C57BL/6NTac mice were fed with a high fat diet (60%). Vehicle group (N=15) were treated with distilled water by gavage BID, CQL (N=15) were treated at 50 mg/kg by gavage BID, and DA (N=15) at a dose of 92.4 mg/kg by gavage BID. The study period was for 56 days+2-3 days testing period afterward. […] Metabolic biomarkers were measured on days 28 and 56. Cytokine analysis on Days 28 and 56. Serum levels of GLP-1, GLP-2, and CCK at 1 h after dosing on Days 1 and 56, and at 2 h after dosing on Day 7 (dosing (>6 h fasting prior to dosing until after blood collection); and serum level of PPY on Day 56.

Regarding `Oc1c(I)cc(Cl)c2cccnc12` [CQL], the “serum HbA1c level at Day 28” value is “significantly reduced” and the “serum HbA1c level at Day 56” value is on record as “considerably increased”. Further, the “daily water intake at Day 28” value (compared to vehicle) is reported as “significantly decreased”.

The values above are taken from patent US20220193013A1, “Pharmaceutical Composition for Treatment or Prevention of Multiple Inflammatory Disorders” (priority 2020, published 2022).
